Laboratory results published in US6358885B1, “Substituted phenylheterocyclic herbicides” (Mississippi State University, priority 1992, dated 2002).

Assays:
velvetleaf = experiment: Test B preemergence/postemergence greenhouse plant response rating 0 to 10; assay type: in vivo, Abutilon theophrasti; conditions: 0 to 10 scale
Procedure, shortened: (§1)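 Planted seeds are treated preemergence with compound dissolved in a non-phytotoxic solvent, while postemergence applications go onto plants of two to eighteen cm. Plants stay in the greenhouse twelve to sixteen days and are then rated visually relative to controls.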

rape = experiment: as above; assay type: in vivo, Brassica napus; conditions: 0 to 10 scale
Procedure, shortened: as §1

barley [1] = experiment: as above; assay type: in vivo, Hordeum vulgare; conditions: 0 to 10 scale
Procedure, shortened: as §1

lambsquarters [2] = experiment: as above; assay type: in vivo, Chenopodium album; conditions: 0 to 10 scale
Procedure, shortened: as §1

sugar beet = experiment: Test C preemergence/postemergence greenhouse plant response rating 0 to 100; assay type: in vivo, Beta vulgaris; conditions: POSTEMERGENCE; for Plant response rating, Sugar beet: 0 to 100 scale
Procedure, shortened: (§2)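 Compounds in non-phytotoxic solvent applied preemergence to sandy loam one day after planting, postemergence at the 1–4 leaf stage, or to ~2.5 cm floodwater over silt loam.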

cheatgrass = experiment: Test B preemergence/postemergence greenhouse plant response rating 0 to 10; assay type: in vivo, Bromus secalinus; conditions: 0 to 10 scale
Procedure, shortened: as §1

soybean [3] = experiment: Test C preemergence/postemergence greenhouse plant response rating 0 to 100; assay type: in vivo, Glycine max; conditions: POSTEMERGENCE; for Plant response rating, Soybean: 0 to 100 scale
Procedure, shortened: as §2

soybean [4] = experiment: Test B preemergence/postemergence greenhouse plant response rating 0 to 10; assay type: in vivo, Glycine max; conditions: 0 to 10 scale
Procedure, shortened: as §1

chickweed = experiment: Test C preemergence/postemergence greenhouse plant response rating 0 to 100; assay type: in vivo, Stellaria media; conditions: POSTEMERGENCE; for Plant response rating, Chickweed: 0 to 100 scale
Procedure, shortened: as §2

crabgrass = experiment: Test B preemergence/postemergence greenhouse plant response rating 0 to 10; assay type: in vivo, Digitaria spp.; conditions: 0 to 10 scale
Procedure, shortened: as §1

purple nutsedge = experiment: as above; assay type: in vivo, Cyperus rotundus; conditions: 0 to 10 scale
Procedure, shortened: as §1

ryegrass = experiment: Test C preemergence/postemergence greenhouse plant response rating 0 to 100; assay type: in vivo, Lolium multiflorum; conditions: POSTEMERGENCE; for Plant response rating Ryegrass: 0 to 100 scale
Procedure, shortened: as §2

pigweed = experiment: as above; assay type: in vivo, Amaranthusretroflexus; conditions: POSTEMERGENCE; for Plant response rating Pigweed: 0 to 100 scale
Procedure, shortened: as §2

blackgrass = experiment: Test B preemergence/postemergence greenhouse plant response rating 0 to 10; assay type: in vivo, Alopecurus myosuroides; conditions: 0 to 10 scale
Procedure, shortened: as §1

barley [5] = experiment: Test C preemergence/postemergence greenhouse plant response rating 0 to 100; assay type: in vivo, Hordeum vulgare; conditions: POSTEMERGENCE; for Plant response rating Barley Igri: 0 to 100 scale
Procedure, shortened: as §2

giant foxtail = experiment: Test B preemergence/postemergence greenhouse plant response rating 0 to 10; assay type: in vivo, Setaria faberii; conditions: 0 to 10 scale
Procedure, shortened: as §1

lambsquarters [6] = experiment: Test C preemergence/postemergence greenhouse plant response rating 0 to 100; assay type: in vivo, Chenopodium album; conditions: POSTEMERGENCE; for Plant response rating Lambsquarters: 0 to 100 scale
Procedure, shortened: as §2

wild buckwheat = experiment: as above; assay type: in vivo, Polygonum convolvulus; conditions: POSTEMERGENCE; for Plant response rating, Wild buckwheat: 0 to 100 scale
Procedure, shortened: as §2

CCOC(=O)COc1cc(-c2nn3c(c2Cl)CCCC3)c(F)cc1Cl [Compound 42]
Plant response rating, Velvetleaf (velvetleaf; POSTEMERGENCE, Rate 50 g/ha): 10 | Plant response rating, Velvetleaf (velvetleaf; PREEMERGENCE, Rate 50 g/ha): 0 | Plant response rating, Velvetleaf (velvetleaf; Rate 200 g/ha, POSTEMERGENCE): 10 | Plant response rating, Velvetleaf (velvetleaf; Rate 200 g/ha, PREEMERGENCE): 6 | Plant response rating, Rape (rape; POSTEMERGENCE, Rate 50 g/ha): 9 | Plant response rating, Rape (rape; PREEMERGENCE, Rate 50 g/ha): 2 | Plant response rating, Rape (rape; Rate 200 g/ha, POSTEMERGENCE): 10 | Plant response rating, Rape (rape; Rate 200 g/ha, PREEMERGENCE): 3 | Plant response rating, Barley (barley [1]; POSTEMERGENCE, Rate 50 g/ha): 3 | Plant response rating, Barley (barley [1]; POSTEMERGENCE, Rate 200 g/ha): 4 | Plant response rating, Barley (barley [1]; PREEMERGENCE, Rate 50 g/ha): 0 | Plant response rating, Barley (barley [1]; Rate 200 g/ha, PREEMERGENCE): 0 | Plant response rating, Lambsquarter (lambsquarters [2]; POSTEMERGENCE, Rate 50 g/ha): 9 | Plant response rating, Lambsquarter (lambsquarters [2]; PREEMERGENCE, Rate 50 g/ha): 9 | Plant response rating, Lambsquarter (lambsquarters [2]; Rate 200 g/ha, POSTEMERGENCE): 10 | Plant response rating, Lambsquarter (lambsquarters [2]; Rate 200 g/ha, PREEMERGENCE): 10 | Plant response rating, Sugar beet (sugar beet; 62 g/ha): 100 | Plant response rating, Sugar beet (sugar beet; 125 g/ha): 100 | Plant response rating (0 to 100), Sugar beet (sugar beet; Rate 16 g/ha): 100 | Plant response rating (0 to 100), Sugar beet (sugar beet; Rate 31 g/ha): 100 | Plant response rating, Cheatgrass (cheatgrass; POSTEMERGENCE, Rate 50 g/ha): 1 | Plant response rating, Cheatgrass (cheatgrass; POSTEMERGENCE, Rate 200 g/ha): 3 | Plant response rating, Cheatgrass (cheatgrass; PREEMERGENCE, Rate 50 g/ha): 0 | Plant response rating, Cheatgrass (cheatgrass; Rate 200 g/ha, PREEMERGENCE): 0 | Plant response rating, Soybean (soybean [3]; 62 g/ha): 60 | Plant response rating, Soybean (soybean [3]; 125 g/ha): 80 | Plant response rating (0 to 100), Soybean (soybean [3]; Rate 16 g/ha): 20 | Plant response rating (0 to 100), Soybean (soybean [3]; Rate 31 g/ha): 40 | Plant response rating, Soybean (soybean [4]; POSTEMERGENCE, Rate 50 g/ha): 4 | Plant response rating, Soybean (soybean [4]; PREEMERGENCE, Rate 50 g/ha): 0 | Plant response rating, Soybean (soybean [4]; Rate 200 g/ha, POSTEMERGENCE): 5 | Plant response rating, Soybean (soybean [4]; Rate 200 g/ha, PREEMERGENCE): 0 | Plant response rating, Chickweed (chickweed; 62 g/ha): 50 | Plant response rating, Chickweed (chickweed; 125 g/ha): 60 | Plant response rating (0 to 100), Chickweed (chickweed; Rate 16 g/ha): 20 | Plant response rating (0 to 100), Chickweed (chickweed; Rate 31 g/ha): 40 | Plant response rating, Crabgrass (crabgrass; POSTEMERGENCE, Rate 50 g/ha): 2 | Plant response rating, Crabgrass (crabgrass; POSTEMERGENCE, Rate 200 g/ha): 3 | Plant response rating, Crabgrass (crabgrass; PREEMERGENCE, Rate 50 g/ha): 0 | Plant response rating, Crabgrass (crabgrass; Rate 200 g/ha, PREEMERGENCE): 0 | Plant response rating, Nutsedge (purple nutsedge; POSTEMERGENCE, Rate 50 g/ha): 2 | Plant response rating, Nutsedge (purple nutsedge; PREEMERGENCE, Rate 50 g/ha): 0 | Plant response rating, Nutsedge (purple nutsedge; Rate 200 g/ha, POSTEMERGENCE): 5 | Plant response rating, Nutsedge (purple nutsedge; Rate 200 g/ha, PREEMERGENCE): 0 | Plant response rating Ryegrass (ryegrass; 62 g/ha): 30 | Plant response rating Ryegrass (ryegrass; 125 g/ha): 40 | Plant response rating (0 to 100), Ryegrass (ryegrass; Rate 16 g/ha): 10 | Plant response rating (0 to 100), Ryegrass (ryegrass; Rate 31 g/ha): 20 | Plant response rating Pigweed (pigweed; 62 g/ha): 90 | Plant response rating Pigweed (pigweed; 125 g/ha): 90 | Plant response rating (0 to 100), Pigweed (pigweed; Rate 16 g/ha): 90 | Plant response rating (0 to 100), Pigweed (pigweed; Rate 31 g/ha): 90 | Plant response rating, Blackgrass (blackgrass; POSTEMERGENCE, Rate 50 g/ha): 2 | Plant response rating, Blackgrass (blackgrass; POSTEMERGENCE, Rate 200 g/ha): 3 | Plant response rating, Blackgrass (blackgrass; PREEMERGENCE, Rate 50 g/ha): 0 | Plant response rating, Blackgrass (blackgrass; Rate 200 g/ha, PREEMERGENCE): 0 | Plant response rating Barley Igri (barley [5]; 62 g/ha): 30 | Plant response rating Barley Igri (barley [5]; 125 g/ha): 40 | Plant response rating (0 to 100), Barley Igri (barley [5]; Rate 16 g/ha): 20 | Plant response rating (0 to 100), Barley Igri (barley [5]; Rate 31 g/ha): 30 | Plant response rating, Giant foxtail (giant foxtail; POSTEMERGENCE, Rate 50 g/ha): 3 | Plant response rating, Giant foxtail (giant foxtail; PREEMERGENCE, Rate 50 g/ha): 0 | Plant response rating, Giant foxtail (giant foxtail; Rate 200 g/ha, POSTEMERGENCE): 4 | Plant response rating, Giant foxtail (giant foxtail; Rate 200 g/ha, PREEMERGENCE): 0 | Plant response rating Lambsquarters (lambsquarters [6]; 62 g/ha): 100 | Plant response rating Lambsquarters (lambsquarters [6]; 125 g/ha): 100 | Plant response rating (0 to 100), Lambsquarters (lambsquarters [6]; Rate 16 g/ha): 100 | Plant response rating (0 to 100), Lambsquarters (lambsquarters [6]; Rate 31 g/ha): 100 | Plant response rating, Wild buckwheat (wild buckwheat; 62 g/ha): 100 | Plant response rating, Wild buckwheat (wild buckwheat; 125 g/ha): 100 | Plant response rating (0 to 100), Wild buckwheat (wild buckwheat; Rate 16 g/ha): 60 | Plant response rating (0 to 100), Wild buckwheat (wild buckwheat; Rate 31 g/ha): 70
